Laboratory results: the supplement of paper PMC10627819

Tests used:
Test in all cases: fitness (endpoint OD595 vs no drug) (fraction); higher = more growth
S. aureus DSM 20231 = tested on: S. aureus DSM 20231
In short: (§1)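 Bacterial growth was followed in 384-well plates seeded at OD595 0.01, with 30 µl per well, or 55 µl for S. pneumoniae, in TSB, LB Lennox or CY at 37 °C. OD595 was read every 30 min for 14 h, and each reading had the first reading subtracted as background. Fitness is the background-corrected optical density at entry into stationary phase divided by the robust mean of the no-drug control wells. This ratio is capped at 1.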

S. aureus Newman = tested on: S. aureus Newman
In short: as §1

S. pneumoniae D39V = tested on: S. pneumoniae D39V
In short: as §1

B. subtilis 168 = tested on: B. subtilis 168
In short: as §1

CCC[C@@H]1C[C@@H](C(=O)N[C@@H]([C@H]2O[C@H](SC)[C@H](O)[C@@H](O)[C@H]2O)[C@H](C)Cl)N(C)C1 [Clindamycin] + CO/N=C(\C(=O)N[C@@H]1C(=O)N2C(C(=O)[O-])=C(C[N+]3(C)CCCC3)CS[C@H]12)c1csc(N)n1 [Cefepime]
Details | fitness
S. aureus DSM 20231, first compound 0.125 µg/mL, partner 0.125 µg/mL | 0.0728
S. aureus DSM 20231, first compound 0.125 µg/mL, partner 0.25 µg/mL | 0.0809
S. aureus DSM 20231, first compound 0.125 µg/mL, partner 0.5 µg/mL | 0.0837
S. aureus Newman, first compound 0.0312 µg/mL, partner 0.125 µg/mL | 0.781
S. aureus Newman, first compound 0.0312 µg/mL, partner 0.25 µg/mL | 0.713
S. aureus Newman, first compound 0.0312 µg/mL, partner 0.5 µg/mL | 0.601
S. aureus Newman, first compound 0.125 µg/mL, partner 0.125 µg/mL | 0.187
S. aureus Newman, first compound 0.125 µg/mL, partner 0.25 µg/mL | 0.158
S. aureus Newman, first compound 0.125 µg/mL, partner 0.5 µg/mL | 0.151
S. pneumoniae D39V, first compound 0.0125 µg/mL, partner 0.0078 µg/mL | 0.809
S. pneumoniae D39V, first compound 0.0125 µg/mL, partner 0.0155 µg/mL | 0.818
S. pneumoniae D39V, first compound 0.0125 µg/mL, partner 0.031 µg/mL | 0.802
S. pneumoniae D39V, first compound 0.015 µg/mL, partner 0.007 µg/mL | 0.914
S. pneumoniae D39V, first compound 0.015 µg/mL, partner 0.014 µg/mL | 0.937
S. pneumoniae D39V, first compound 0.015 µg/mL, partner 0.028 µg/mL | 0.841
S. pneumoniae D39V, first compound 0.025 µg/mL, partner 0.0078 µg/mL | 0.599
S. pneumoniae D39V, first compound 0.025 µg/mL, partner 0.0155 µg/mL | 0.57
S. pneumoniae D39V, first compound 0.025 µg/mL, partner 0.031 µg/mL | 0.523
S. pneumoniae D39V, first compound 0.03 µg/mL, partner 0.007 µg/mL | 0.771
S. pneumoniae D39V, first compound 0.03 µg/mL, partner 0.014 µg/mL | 0.789
S. pneumoniae D39V, first compound 0.03 µg/mL, partner 0.028 µg/mL | 0.696
S. pneumoniae D39V, first compound 0.05 µg/mL, partner 0.0078 µg/mL | 0.264
S. pneumoniae D39V, first compound 0.05 µg/mL, partner 0.0155 µg/mL | 0.255
S. pneumoniae D39V, first compound 0.05 µg/mL, partner 0.031 µg/mL | 0.241
S. pneumoniae D39V, first compound 0.06 µg/mL, partner 0.007 µg/mL | 0.408
S. pneumoniae D39V, first compound 0.06 µg/mL, partner 0.014 µg/mL | 0.411
S. pneumoniae D39V, first compound 0.06 µg/mL, partner 0.028 µg/mL | 0.365

N[C@@H]1CONC1=O [Cycloserine D] + CN[C@H](CC(C)C)C(=O)N[C@H]1C(=O)N[C@@H](CC(N)=O)C(=O)N[C@H]2C(=O)N[C@H]3C(=O)N[C@H](C(=O)N[C@H](C(=O)O)c4cc(O)cc(O)c4-c4cc3ccc4O)[C@H](O)c3ccc(c(Cl)c3)Oc3cc2cc(c3O[C@@H]2O[C@H](CO)[C@@H](O)[C@H](O)[C@H]2O[C@H]2C[C@](C)(N)[C@H](O)[C@H](C)O2)Oc2ccc(cc2Cl)[C@H]1O [Vancomycin]
fitness
Details | first compound 0.375 µg/mL | first compound 0.75 µg/mL | first compound 1.5 µg/mL
S. aureus DSM 20231, partner 0.1875 µg/mL | ≥ 1 | 0.973 | ≥ 1
S. aureus DSM 20231, partner 0.375 µg/mL | ≥ 1 | ≥ 1 | 0.957
S. aureus DSM 20231, partner 0.75 µg/mL | ≥ 1 | ≥ 1 | ≥ 1
S. aureus Newman, partner 0.1875 µg/mL | ≥ 1 | 0.995 | 0.983
S. aureus Newman, partner 0.375 µg/mL | ≥ 1 | ≥ 1 | ≥ 1
S. aureus Newman, partner 0.75 µg/mL | ≥ 1 | 0.975 | 0.967

O=C(N[C@H](CO)[C@H](O)c1ccc([N+](=O)[O-])cc1)C(Cl)Cl [Chloramphenicol] + CO[C@@]12[C@H](COC(N)=O)C3=C(C(=O)C(C)=C(N)C3=O)N1C[C@@H]1N[C@@H]12 [Mitomycin C]
fitness
Details | first compound 0.75 µg/mL | first compound 1.5 µg/mL | first compound 3 µg/mL
S. aureus DSM 20231, partner 0.0156 µg/mL | 0.598 | 0.431 | 0.0667
S. aureus DSM 20231, partner 0.0312 µg/mL | 0.572 | 0.367 | 0.0823
S. aureus DSM 20231, partner 0.0625 µg/mL | 0.453 | 0.245 | 0.0494
S. aureus Newman, partner 0.0156 µg/mL | 0.577 | 0.442 | 0.259
S. aureus Newman, partner 0.0312 µg/mL | 0.537 | 0.363 | 0.144
S. aureus Newman, partner 0.0625 µg/mL | 0.399 | 0.3 | 0.0938

N[C@@H]1CONC1=O [Cycloserine D] + CO[C@@]12[C@H](COC(N)=O)C3=C(C(=O)C(C)=C(N)C3=O)N1C[C@@H]1N[C@@H]12 [Mitomycin C]
fitness
Details | first compound 0.375 µg/mL | first compound 0.75 µg/mL | first compound 1.5 µg/mL
S. aureus DSM 20231, partner 0.0156 µg/mL | 0.746 | 0.739 | 0.71
S. aureus DSM 20231, partner 0.0312 µg/mL | 0.716 | 0.716 | 0.711
S. aureus DSM 20231, partner 0.0625 µg/mL | 0.528 | 0.542 | 0.513
S. aureus Newman, partner 0.0156 µg/mL | 0.682 | 0.71 | 0.732
S. aureus Newman, partner 0.0312 µg/mL | 0.656 | 0.651 | 0.693
S. aureus Newman, partner 0.0625 µg/mL | 0.567 | 0.5 | 0.555

N[C@@H]1CONC1=O [Cycloserine D] + COc1cccc2c1C(=O)c1c(O)c3c(c(O)c1C2=O)C[C@@](O)(C(=O)CO)C[C@@H]3O[C@H]1C[C@H](N)[C@H](O)[C@H](C)O1 [Doxorubicin]
fitness
Details | first compound 0.125 µg/mL | first compound 0.25 µg/mL | first compound 0.375 µg/mL | first compound 0.5 µg/mL | first compound 0.75 µg/mL | first compound 1.5 µg/mL
B. subtilis 168, partner 0.625 µg/mL | 0.976 | 0.959 | – | 0.921 | – | –
B. subtilis 168, partner 1.25 µg/mL | 0.919 | 0.939 | – | 0.891 | – | –
B. subtilis 168, partner 2.5 µg/mL | 0.754 | 0.704 | – | 0.722 | – | –
S. aureus DSM 20231, partner 0.625 µg/mL | – | – | 0.942 | – | 0.898 | 0.905
S. aureus DSM 20231, partner 1.25 µg/mL | – | – | 0.867 | – | 0.891 | 0.953
S. aureus DSM 20231, partner 2.5 µg/mL | – | – | 0.861 | – | 0.841 | 0.774
S. aureus Newman, partner 0.625 µg/mL | – | – | 0.796 | – | 0.809 | 0.827
S. aureus Newman, partner 1.25 µg/mL | – | – | 0.797 | – | 0.797 | 0.799
S. aureus Newman, partner 2.5 µg/mL | – | – | 0.748 | – | 0.75 | 0.771

CCC[C@@H]1C[C@@H](C(=O)N[C@@H]([C@H]2O[C@H](SC)[C@H](O)[C@@H](O)[C@H]2O)[C@H](C)Cl)N(C)C1 [Clindamycin] + CO[C@@]12[C@H](COC(N)=O)C3=C(C(=O)C(C)=C(N)C3=O)N1C[C@@H]1N[C@@H]12 [Mitomycin C]
Details | fitness
S. aureus DSM 20231, first compound 0.0312 µg/mL, partner 0.0312 µg/mL | 0.466
S. aureus DSM 20231, first compound 0.0312 µg/mL, partner 0.0625 µg/mL | 0.35
S. aureus DSM 20231, first compound 0.0625 µg/mL, partner 0.0156 µg/mL | 0.149
S. aureus DSM 20231, first compound 0.0625 µg/mL, partner 0.0312 µg/mL | 0.117
S. aureus DSM 20231, first compound 0.0625 µg/mL, partner 0.0625 µg/mL | 0.103
S. aureus DSM 20231, first compound 0.125 µg/mL, partner 0.0156 µg/mL | 0.0347
S. aureus DSM 20231, first compound 0.125 µg/mL, partner 0.0312 µg/mL | 0.0369
S. aureus DSM 20231, first compound 0.125 µg/mL, partner 0.0625 µg/mL | 0.083
S. aureus Newman, first compound 0.0312 µg/mL, partner 0.0156 µg/mL | 0.537
S. aureus Newman, first compound 0.0312 µg/mL, partner 0.0312 µg/mL | 0.483
S. aureus Newman, first compound 0.0312 µg/mL, partner 0.0625 µg/mL | 0.412
S. aureus Newman, first compound 0.0625 µg/mL, partner 0.0156 µg/mL | 0.421
S. aureus Newman, first compound 0.0625 µg/mL, partner 0.0312 µg/mL | 0.355
S. aureus Newman, first compound 0.0625 µg/mL, partner 0.0625 µg/mL | 0.243
S. aureus Newman, first compound 0.125 µg/mL, partner 0.0156 µg/mL | 0.138
S. aureus Newman, first compound 0.125 µg/mL, partner 0.0312 µg/mL | 0.163
S. aureus Newman, first compound 0.125 µg/mL, partner 0.0625 µg/mL | 0.0658
S. pneumoniae D39V, first compound 0.0125 µg/mL, partner 0.002 µg/mL | 0.651
S. pneumoniae D39V, first compound 0.0125 µg/mL, partner 0.004 µg/mL | 0.593
S. pneumoniae D39V, first compound 0.0125 µg/mL, partner 0.008 µg/mL | 0.495
S. pneumoniae D39V, first compound 0.015 µg/mL, partner 0.001075 µg/mL | 0.912
S. pneumoniae D39V, first compound 0.015 µg/mL, partner 0.00215 µg/mL | 0.889
S. pneumoniae D39V, first compound 0.015 µg/mL, partner 0.0043 µg/mL | 0.752
S. pneumoniae D39V, first compound 0.025 µg/mL, partner 0.002 µg/mL | 0.36
S. pneumoniae D39V, first compound 0.025 µg/mL, partner 0.004 µg/mL | 0.328
S. pneumoniae D39V, first compound 0.025 µg/mL, partner 0.008 µg/mL | 0.322
S. pneumoniae D39V, first compound 0.03 µg/mL, partner 0.001075 µg/mL | 0.708
S. pneumoniae D39V, first compound 0.03 µg/mL, partner 0.00215 µg/mL | 0.689
S. pneumoniae D39V, first compound 0.03 µg/mL, partner 0.0043 µg/mL | 0.57
S. pneumoniae D39V, first compound 0.05 µg/mL, partner 0.002 µg/mL | 0.187
S. pneumoniae D39V, first compound 0.05 µg/mL, partner 0.004 µg/mL | 0.144
S. pneumoniae D39V, first compound 0.05 µg/mL, partner 0.008 µg/mL | 0.155
S. pneumoniae D39V, first compound 0.06 µg/mL, partner 0.001075 µg/mL | 0.453
S. pneumoniae D39V, first compound 0.06 µg/mL, partner 0.00215 µg/mL | 0.396
S. pneumoniae D39V, first compound 0.06 µg/mL, partner 0.0043 µg/mL | 0.306

N[C@@H]1CONC1=O [Cycloserine D] + Cc1ncc([N+](=O)[O-])n1CCO [Metronidazole]
fitness
Details | partner 0.625 µg/mL | partner 0.781 µg/mL | partner 1.25 µg/mL | partner 1.562 µg/mL | partner 2.5 µg/mL | partner 3.124 µg/mL
B. subtilis 168, first compound 0.125 µg/mL | 0.948 | – | 0.913 | – | 0.937 | –
B. subtilis 168, first compound 0.25 µg/mL | – | – | 0.841 | – | 0.868 | –
B. subtilis 168, first compound 0.5 µg/mL | 0.933 | – | 0.921 | – | 0.973 | –
S. aureus DSM 20231, first compound 0.375 µg/mL | ≥ 1 | – | ≥ 1 | – | ≥ 1 | –
S. aureus DSM 20231, first compound 0.75 µg/mL | ≥ 1 | – | ≥ 1 | – | ≥ 1 | –
S. aureus DSM 20231, first compound 1.5 µg/mL | ≥ 1 | – | ≥ 1 | – | ≥ 1 | –
S. aureus Newman, first compound 0.375 µg/mL | 0.969 | 0.959 | ≥ 1 | 0.976 | 0.97 | 0.985
S. aureus Newman, first compound 0.75 µg/mL | 0.929 | ≥ 1 | ≥ 1 | 0.972 | 0.961 | 0.988
S. aureus Newman, first compound 1.5 µg/mL | 0.912 | ≥ 1 | 0.964 | 0.974 | 0.972 | ≥ 1
